The source made the active and inactive calls. How the calls were made is not given here.
Biological target: Nuclear receptor ROR-gamma (Homo sapiens) (UniProt P51449)
Assay: RORγ reporter activity suppression – cell-based, luminescence, dose response, selectivity assay for RORA inverse agonist project, late-stage follow-up (AID 463151)
Conditions: cell-based RORG luciferase reporter

Nuclear receptor ROR-gamma (Homo sapiens), sequence (P51449 whole entry, looked up): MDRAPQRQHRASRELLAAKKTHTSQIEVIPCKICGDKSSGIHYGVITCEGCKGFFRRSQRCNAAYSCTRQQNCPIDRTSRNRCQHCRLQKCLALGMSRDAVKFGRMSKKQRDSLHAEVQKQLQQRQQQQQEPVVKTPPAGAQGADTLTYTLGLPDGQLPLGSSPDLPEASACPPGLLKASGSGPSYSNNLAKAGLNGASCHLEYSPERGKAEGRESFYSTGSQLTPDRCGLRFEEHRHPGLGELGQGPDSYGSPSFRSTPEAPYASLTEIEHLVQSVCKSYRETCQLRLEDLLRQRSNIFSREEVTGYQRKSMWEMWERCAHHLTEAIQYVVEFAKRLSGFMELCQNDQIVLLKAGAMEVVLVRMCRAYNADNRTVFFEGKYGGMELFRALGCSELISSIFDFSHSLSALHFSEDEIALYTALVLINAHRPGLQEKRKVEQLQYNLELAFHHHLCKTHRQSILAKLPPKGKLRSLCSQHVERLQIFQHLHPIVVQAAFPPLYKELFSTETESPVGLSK

IC50: > 10 µM (inactive)
Compound: O=S(=O)(Nc1ccc(C(O)(C(F)(F)F)C(F)(F)F)cc1)c1cccs1
